According to paper PMC8341802 (RSC Chemical Biology, 2021):

Molecular target: APOBEC3A (A3A) (Homo sapiens, UniProt P31941)
Type: biochemical

Sequence of APOBEC3A (A3A) (P31941 whole entry): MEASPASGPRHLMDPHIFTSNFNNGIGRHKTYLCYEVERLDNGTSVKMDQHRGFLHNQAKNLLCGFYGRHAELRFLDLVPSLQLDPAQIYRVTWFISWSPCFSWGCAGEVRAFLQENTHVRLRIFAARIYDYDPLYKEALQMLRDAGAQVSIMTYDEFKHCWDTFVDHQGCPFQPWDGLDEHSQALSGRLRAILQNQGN

SMILES: O=C(O)C1=CC(=C(c2ccc(O)c(C(=O)O)c2)c2ccc(O)c(C(=O)O)c2)C=CC1=O [MN1, aurintricarboxylic acid]
- IC50: 40.5 µM
